Assay results: patent US12060360B2, “Lysyl oxidase inhibitors” (The Institute of Cancer Research: Royal Cancer Hospital, priority 2017, dated 2024)

Tests used:
[1] = test system: MMTV-PyMT breast transgenic model primary tumour; experiment: MMTV-PyMT transgenic mouse breast cancer model, primary tumour T/C; format: in vivo; conditions: 200 mg/kg po qd; ratio of average tumour volume treated/vehicle control; p<0.05
Method: (§1) All procedures involving animals were approved by the Animal Welfare and Ethical Review Body of the Institute of Cancer Research and Cancer Research UK Manchester Institute in accordance with National Home Office regulations under the Animals (Scientific Procedures) Act 1986 and according to the guidelines of the Committee of the National Cancer Research Institute Tumour size was determined by caliper measurements of tumour length, width and depth and volume was calculated as volume=0.5236×length×width×depth (mm).
(§2) MMTV-PyMT (Guy et al, 1992) (FVB) female mice were randomized by non-statistical methods to LOX inhibitor treatment groups from day 70 post-birth, when animals had no detectable tumour. Mice were treated daily by oral gavage with LOX inhibitor in vehicle, or daily vehicle (5% DMSO/2.5% Tween20 in water) by oral gavage. Tumour size was determined unblinded by caliper measurements of tumour length, width and depth and volume was calculated as 0.5236×length×width×depth (mm). In all experiments, mice were humanely killed and mammary tumours and lungs were collected when the primary tumours reached ethical limits or signs of ill health.
(§3) For therapeutic efficacy assessment, the ratio of average tumour volume between compound treated and vehicle control treated (T/C) is calculated. Reduction in tumour volume in the compound treated group compared to vehicle-treated control group results in T/C<1. The efficacy of LOX inhibitors described in this invention, as measured by T/C in a pancreatic cancer model, a colorectal cancer model and a breast cancer model is shown in Table 2 and is significant (p<0.05) for all the data presented.

[2] = molecular target: T1, LOX (Mus musculus, UniProt P28301); experiment: LOX activity in cysts assay (LOX-roGFP2 biosensor, MDCK cysts); format: cell-based; conditions: MDCK cysts; for inhibition at 10 µM: inhibitor added 30 min prior to imaging, DMSO = 0%, BAPN 1 mM = 100% inhibition, read-out: LOX biosensor inhibition (cyst) @ 10 uM; for IC50: roGFP2 ratio at basal surface, read-out: LOX biosensor IC50 (cyst)
T1 construct: Full length LOX cDNA was then PCR cloned into pEGFP-N1 (Clonetech), or biosensor vector proGFP2-N1; expressed in transfected cells; host or cells: MDCK cells grown as cysts on Matrigel, G418-selected
T1 sequence (P28301 163-411): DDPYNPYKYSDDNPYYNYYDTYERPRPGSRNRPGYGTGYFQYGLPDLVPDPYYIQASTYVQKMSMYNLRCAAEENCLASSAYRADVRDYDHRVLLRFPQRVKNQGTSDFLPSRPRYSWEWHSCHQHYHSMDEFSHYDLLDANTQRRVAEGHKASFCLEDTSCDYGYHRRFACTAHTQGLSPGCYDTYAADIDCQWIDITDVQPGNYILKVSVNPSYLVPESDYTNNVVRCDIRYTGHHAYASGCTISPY
Method: LOX Activity in Cysts Assay (Tang et al, 2017).
All cell lines used in this study were purchased from American Type Culture Collection (ATCC). Mycoplasma contamination was routinely monitored by PCR. Cells used were not found to be Mycoplasma positive. MDCK cell lines were cultured in Dulbecco's Modified Eagle Medium (DMEM) supplemented with 10% fetal bovine serum (FBS) and 1% Penicillin Streptomycin solution (Pen Strep). For GFP constructs transfection in MDCK cells, lipofectamine 3000 was used according to manufactures protocols. Cells were either selected with G418 (Life Technologies) at 5 mg/ml. All cell culture reagents were purchased from Life Technologies.
To produce MDCK cysts, cells were cultured on Matrigel (Corning) with 2% Matrigel supplemented in DMEM with 10% FBS. Cysts were allowed to form for 10 days before subsequent studies.
Mouse LOX cDNA was purchased from OriGene. Full length LOX cDNA was then PCR cloned into pEGFP-N1 (Clonetech), or biosensor vector proGFP2-N1 (Hanson, 2004) using the following primers, […] (forward primer) and […] (reverse primer). For the insertion into pEGFP-N1 or proGFP2-N1, NheI and XhoI restriction sites were added to forward and reverse primers accordingly. Mutant LOX constructs were made using QuickChange II site-directed mutagenesis kit (Agilent Technologies) following manufacture's protocol using LOX-GFP as template. To generate, roGFP2 versions of LOX mutant constructs, LOX mutant cDNA was transferred from pEGFP-N1 to proGFP2-N1 using NheI and XhoI.
All photomicrographs were taken with a Leica TCS SP8 X confocal system. For LOX biosensor imaging, live MDCK cysts were used. The oxidised biosensor was excited using a 405 nm laser, while the reduced biosensor was excited with a 488 nm laser. Emission of the biosensor was recorded at 500 nm˜530 nm range using sequential scans. Ratio images were generated following a published protocol {Kardash, 2011 #376}. Note, while the published protocol generates YFP/CFP ratio images, we used it to generate Oxidised/Reduced (roGFP2 ratio) ratio images. The roGFP2 ratio at the basal surface of MDCK cysts was used to indicate LOX inhibition. LOX inhibitors were added 30 min prior to imaging.
For clarity, readout for DMSO treated cysts represents 0% inhibition (no inhibition) and readout for BAPN at 1 mM is used as 100% inhibition (full inhibition).

[3] = test system: MMTV-PyMT breast transgenic model lung metastases; experiment: MMTV-PyMT transgenic mouse breast cancer model, lung metastases quantification T/C; format: in vivo; conditions: 200 mg/kg po qd, treated/vehicle control, p<0.05
Method: as §2
For lung metastases quantification, all mouse tissue samples were fixed in 10% formalin (Sigma) and embedded in paraffin. Samples were sectioned and hematoxylin and eosin (H&E) stained. Samples were imaged with a Leica CN400 slide scanner. Lung metastases were manually selected using Pen tool in ImageScope. Lung metastases number was counted and area was measured using ImageScope. The investigator was blinded to the experimental groups. The ratio of average metastases surface between compound treated and vehicle control treated (TIC) is calculated. The ratio of average metastases numbers between compound treated and vehicle control treated (T/C) is also calculated. Reduction in metastases area and/or in metastatses number in the compound treated group compared to vehicle-treated control group results in T/C<1. The antimetastatic efficacy of LOX inhibitors described in this invention, as measured by T/C in a model of breast cancer metastasising to lungs is shown in Table 2 and is significant (p<0.05) for all the data presented.

[4] = test system: MDA-MB-231 human breast adenocarcinoma; experiment: MDA-MB-231 xenografts, primary tumour volume T/C; format: in vivo; conditions: 200 mg/kg po qd, ratio of average tumour volume treated/vehicle control, p<0.05
Method: as §1
MDA-MB-231 xenografts. Ncr nude female mice at 6 weeks old from Charles River were injected into the third upper nipple mammary fat pad with MDA-MB-231 Luc 4×10^6 in 100 ul PB (50:50 Matrigel). When tumours reach a mean of 80 mm^3 around 10 days post cell inoculation the animals are allocated in 4 groups of 8. LOX inhibitor treatment is then administrated by oral gavage dosing, at 0.2 ml/20 g bodyweight once daily for up to 28 consecutive days. Tumours and weights are measured twice weekly using calipers and the animals can be imaged using non invasive method by bioluminescence using IVIS 200 imaging machine, weekly using 150 mg/kg luciferin administrate intraperitoneal or subcutaneous. At the end of the study the animals are culled, and samples taken, fixed or snap frozen in liquid nitrogen. Frozen samples kept at −80 degree centigrade until being analyzed and the fixed samples stained according to desired marker.
as §3

[5] = test system: PDAC TRP53R172H (p53 mut) cells (mouse pancreatic carcinoma); experiment: PDAC allografts, primary tumour volume T/C; format: in vivo; conditions: ratio of average tumour volume treated/vehicle control, p<0.05
Method: as §1
PDAC allografts: CD1 nu/nu female mice at 6 weeks of age were inoculated subcutaneously in the right flank with 2×10^6 PDAC TRP53R172H (p53 mut) cells at 100 ul suspension per animal. In some examples, the oral dosing by metal gavage commences one day after cells inoculation, at 0.2 ml/20 g bodyweight per animal once daily for 2-4 weeks, with compound dissolved in 5.25% tween20/saline or 5% DMSO/water. In other examples, groups of 7-8 mice were assigned to treatment following stratified allocation of tumour volumes with a median size of circa 100 mm^3. […] Control animals received a similar dosage of vehicle (5.25% tween20/saline). Tumours and weights are measured twice weekly using calipers. At the end of the study the animals are culled, and samples taken, fixed or snap frozen in liquid nitrogen. Frozen samples kept at −80 degree centigrade until being analysed and the fixed samples stained according to the desired marker.
as §3

Structure (SMILES)	T/C MMT-PyMT breast transgenic model - primary tumour [1]	inhibition at 10 µM [2] [%]	IC50 [2] [µM]	T/C MMT-PyMT breast transgenic model - metastases b) Area ([3]; lung metastases area)	T/C MMT-PyMT breast transgenic model - metastases a) Count ([3]; lung metastases number)	response vs control in vivo at 200 mg/kg [4] [%]	T/C PDAC R172H (p53 mut) (mouse pancreatic carcinoma) - primary tumour ([5]; 200 mg/kg po qd)	T/C PDAC R172H (p53 mut) (mouse pancreatic carcinoma) - primary tumour ([5]; 100 mg/kg bid)
CC1(C)C[C@@H]2CN(C(=O)N3CCOCC3)C[C@H]1N(c1ccc(N3CCS(=O)(=O)CC3)cc1)C2 [Example 10, ((1S,5S)-6-(4-(1,1-dioxidothiomorpholino)phenyl)-9,9-dimethyl-3,6-diazabicyclo[3.2.2]nonan-3-yl)(morpholino)methanone]	0.11	100	< 0.18	b) 0.0006	a) 0.02	39		
CCOc1ccc(N2C[C@H]3CN(C(=O)NCCc4c[nH]cn4)C[C@@H]2C(C)(C)C3)cc1 [Example 26, (1S,5S)-N-(2-(1H-imidazol-4-yl)ethyl)-6-(4-ethoxyphenyl)-9,9-dimethyl-3,6-diazabicyclo[3.2.2]nonane-3-carboxamide]			0.34				0.46	
CC1(C)C[C@@H]2CN(CCCC#N)C[C@H]1N(c1ccc(N3CCS(=O)(=O)CC3)cc1)C2 [Example 39, 4-((1R,5S)-6-(4-(1,1-dioxidothiomorpholino)phenyl)-9,9-dimethyl-3,6-diazabicyclo[3.2.2]nonan-3-yl)butanenitrile]		75	3.18			48		
CCOc1ccc(N2C[C@H]3CN(C(=O)NCCS(C)(=O)=O)C[C@@H]2C(C)(C)C3)cc1 [Example 13, (1S,5S)-6-(4-ethoxyphenyl)-9,9-dimethyl-N-(2-(methylsulfonyl)ethyl)-3,6-diazabicyclo[3.2.2]nonane-3-carboxamide]			1.02			63		0.56
CCOc1ccc(N2C[C@H]3CN(C(=O)NCCO)C[C@@H]2C(C)(C)C3)cc1 [Example 12, (1S,5S)-N-(2-hydroxyethyl)-6-(4-ethoxyphenyl)-9,9-dimethyl-3,6-diazabicyclo[3.2.2]nonane-3-carboxamide]	0.26		0.89				0.47	
CC1(C)C[C@@H]2CN(C(=O)CCC#N)C[C@H]1N(c1ccc(N3CCS(=O)(=O)CC3)cc1)C2 [Example 49, 4-((1 S,5S)-6-(4-(1,1-Dioxidothiomorpholino)phenyl)-9,9-dimethyl-3,6-diazabicyclo[3.2.2]nonan-3-yl)-4-oxobutanenitrile]		100				62		
CC1(C)C[C@@H]2CN(C(=O)NC3CCOCC3)C[C@H]1N(c1ccc(N3CCS(=O)(=O)CC3)cc1)C2 [Example 7, (1S,5S)-6-(4-(1,1-dioxidothiomorpholino)phenyl)-9,9-dimethyl-N-(tetrahydro-2H-pyran-4-yl)-3,6-diazabicyclo[3.2.2]nonane-3-carboxamide]	0.25	88	0.54			34		
COCCOc1ccc(N2C[C@H]3CN(C(=O)NCCO)C[C@@H]2C(C)(C)C3)cc1 [Example 27, (1S,5S)-N-(2-Hydroxyethyl)-6-(4-(2-methoxyethoxy)phenyl)-9,9-dimethyl-3,6-diazabicyclo[3.2.2]nonane-3-carboxamide]		88	0.99			60		
CCOc1ccc(N2C[C@H]3CN(S(=O)(=O)N4CCOCC4)C[C@@H]2C(C)(C)C3)cc1 [Example 57, 4-(((1S,5S)-6-(4-ethoxyphenyl)-9,9-dimethyl-3,6-diazabicyclo[3.2.2]nonan-3-yl)sulfonyl)morpholine]		93						
CC1(C)C[C@@H]2CN(C(=O)NCCO)C[C@H]1N(c1ccc(N3CCOCC3)cc1)C2 [Example 4, (1S,5S)—N-(2-hydroxyethyl)-9,9-dimethyl-6-(4-morpholinophenyl)-3,6-diazabicyclo[3.2.2]nonane-3-carboxamide]		88	0.61			35		
